Results taken from patent US20250368666A1, “INDAZOLE COMPOUNDS” (TYRA BIOSCIENCES, INC., priority 2022, published 2025).

Tests used:
[1] = test system: HuH7 cell line (FGF19 amplification); assay: Cancer cell line cell viability assay (Cell Titer-Glo), 120 hr; type: cell-based; conditions: Homo sapiens, Huh-7
From the text: Experimental Purpose: To detect the change of intracellular ATP by Cell Titer-Glo® and to evaluate the inhibitory effect of the compounds on cancer cell lines by determining the in vitro IC50 value of the compounds.
Cell Titer-Glo® 2.0 Luminescent cell viability assay reagent was purchased from Promega (Madison, WI). KG-1, KATO-III, and MDA-MB-453 cell lines were purchased from American Type Culture Collection (Manassas, VA). RT112/84 cell line was purchased from Millipore-Sigma (St. Louis, MO). HuH7 cells were purchased from Seikisui Xenotech (Kansas City, KS). RT112/84 and MDA-MB-453 cells were cultured in RPMI1640 media supplemented with 10% fetal bovine serum. KG-1 and KATO-III cell lines were cultured in IMDM media supplemented with 20% FBS. HuH7 cells were cultured in IMDM media supplemented with 10% FBS. Cultures were maintained at 37° C. in a humidified atmosphere of 5% CO2 and 95% air.
Cell Viability Assay Procedure: Cells were plated in 96-well clear bottom/white plates (Corning #3903) at a range of densities depending on the optimal assay window (5,000-20,000 cells/well in […] of media), incubated overnight. The next day, test compound DMSO stock solutions were made at 10 mM and […] final concentration. Compounds were then added to cells in a 9-dose, 4-fold dilution series starting at 3 μM with an HP 300e Digital Dispenser (each dose was applied in triplicate). DMSO was backfilled to each well up to 301 nL total volume of test compound+DMSO, and a total of 301 nL DMSO was added to a control/no test compound well in triplicate. The cells in cell culture plates were incubated with the compounds at 37° C. and 5% CO2 for 72 hours-120 hours depending on the cell line. Then 50 μl of Cell Titer Glo 2.0 reagent was added to each well of the cell culture plates. The contents were covered from light and mixed on an orbital shaker at room temperature for minimum of 10 min. Luminescence was recorded by a Clariostar Plus Microplate Reader (BMG Labtech, Cary, NC). Cells were assessed as a percentage of DMSO only treated control cells. Curves were plotted and IC50 values were calculated using the GraphPad Prism 9 program based on a sigmoidal dose-response equation (log (inhibitor) vs. response—Variable slope, 4-parameter).

FGFR3 = target: T1, FGFR3 (Homo sapiens, UniProt P22607); assay: Kinase binding assay (kinase-tagged T7 phage, affinity beads, qPCR), Kd; conditions: read-out: FGFR3 (Kd nM)
T1 construct: made in house; host or cells: E. coli (BL21-derived), T7 phage
Outline: (§1)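 Competition binding; kinase-tagged T7 phage lysate vs immobilised biotinylated ligand on streptavidin beads, 0.9% DMSO final. 11-pt 3-fold dilutions, 3 DMSO controls. qPCR of eluted kinase; Kd by Hill fit, slope −1.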

FGFR1 = target: T2, FGFR1 (Homo sapiens, UniProt P11362); assay: as above; conditions: read-out: FGFR1 (Kd nM)
T2 construct: made in house; host or cells: E. coli (BL21-derived), T7 phage
Outline: as §1

FGFR2 = target: T3, FGFR2 (Homo sapiens, UniProt P21802); assay: as above; conditions: read-out: FGFR2 (Kd nM)
T3 construct: made in house; host or cells: E. coli (BL21-derived), T7 phage
Outline: as §1

FGFR3 (V555M) = target: T4, FGFR3 (V555M) (Homo sapiens, UniProt P22607, V555M); assay: as above; conditions: V555M mutant; read-out: FGFR3 (V555M) (Kd nM)
T4 construct: made in house; host or cells: E. coli (BL21-derived), T7 phage
Outline: as §1

FGFR4 = target: T5, FGFR4 (Homo sapiens, UniProt P22455); assay: as above; conditions: read-out: FGFR4 (Kd nM)
T5 construct: made in house; host or cells: E. coli (BL21-derived), T7 phage
Outline: as §1

T1 sequence (P22607 23-806): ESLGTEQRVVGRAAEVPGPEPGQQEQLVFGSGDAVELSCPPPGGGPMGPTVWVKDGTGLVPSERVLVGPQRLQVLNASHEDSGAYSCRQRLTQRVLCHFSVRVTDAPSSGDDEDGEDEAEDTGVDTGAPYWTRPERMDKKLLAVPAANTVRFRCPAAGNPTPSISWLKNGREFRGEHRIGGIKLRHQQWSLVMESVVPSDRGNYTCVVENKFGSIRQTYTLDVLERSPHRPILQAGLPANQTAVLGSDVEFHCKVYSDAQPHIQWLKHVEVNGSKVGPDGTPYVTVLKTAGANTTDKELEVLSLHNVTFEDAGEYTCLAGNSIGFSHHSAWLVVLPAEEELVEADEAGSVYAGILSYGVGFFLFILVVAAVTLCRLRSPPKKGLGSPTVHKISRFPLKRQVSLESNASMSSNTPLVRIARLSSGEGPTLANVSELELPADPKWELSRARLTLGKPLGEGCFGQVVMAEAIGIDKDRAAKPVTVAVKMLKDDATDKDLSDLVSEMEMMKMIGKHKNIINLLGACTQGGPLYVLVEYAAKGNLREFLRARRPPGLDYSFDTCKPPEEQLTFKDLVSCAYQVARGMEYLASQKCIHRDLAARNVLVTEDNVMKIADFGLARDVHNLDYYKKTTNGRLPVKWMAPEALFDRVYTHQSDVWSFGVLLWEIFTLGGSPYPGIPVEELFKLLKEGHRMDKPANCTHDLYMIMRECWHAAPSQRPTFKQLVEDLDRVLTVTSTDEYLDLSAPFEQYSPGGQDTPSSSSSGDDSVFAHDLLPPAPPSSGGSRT
T2 sequence (P11362 22-822): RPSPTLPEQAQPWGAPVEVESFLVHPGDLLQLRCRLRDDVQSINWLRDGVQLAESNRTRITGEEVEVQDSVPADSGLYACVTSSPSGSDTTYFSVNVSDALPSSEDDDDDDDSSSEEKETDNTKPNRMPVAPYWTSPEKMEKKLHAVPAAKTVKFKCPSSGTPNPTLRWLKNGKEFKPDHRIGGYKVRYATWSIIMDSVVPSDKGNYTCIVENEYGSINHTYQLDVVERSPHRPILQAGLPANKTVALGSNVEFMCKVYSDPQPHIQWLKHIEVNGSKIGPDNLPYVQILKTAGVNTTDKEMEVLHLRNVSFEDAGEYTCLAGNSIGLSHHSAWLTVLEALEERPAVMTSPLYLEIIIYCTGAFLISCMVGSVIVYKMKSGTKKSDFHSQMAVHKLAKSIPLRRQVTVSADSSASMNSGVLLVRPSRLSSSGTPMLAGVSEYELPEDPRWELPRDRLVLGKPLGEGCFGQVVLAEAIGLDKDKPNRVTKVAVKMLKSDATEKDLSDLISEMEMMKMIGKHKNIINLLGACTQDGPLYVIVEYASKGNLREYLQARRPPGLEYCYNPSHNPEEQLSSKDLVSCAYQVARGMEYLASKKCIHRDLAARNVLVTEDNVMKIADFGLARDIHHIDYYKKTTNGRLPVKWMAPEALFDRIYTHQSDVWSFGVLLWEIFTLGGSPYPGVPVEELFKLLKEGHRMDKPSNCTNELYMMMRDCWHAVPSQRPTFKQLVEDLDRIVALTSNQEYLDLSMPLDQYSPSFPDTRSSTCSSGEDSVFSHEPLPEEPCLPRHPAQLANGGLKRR
T5 sequence (P22455 22-802): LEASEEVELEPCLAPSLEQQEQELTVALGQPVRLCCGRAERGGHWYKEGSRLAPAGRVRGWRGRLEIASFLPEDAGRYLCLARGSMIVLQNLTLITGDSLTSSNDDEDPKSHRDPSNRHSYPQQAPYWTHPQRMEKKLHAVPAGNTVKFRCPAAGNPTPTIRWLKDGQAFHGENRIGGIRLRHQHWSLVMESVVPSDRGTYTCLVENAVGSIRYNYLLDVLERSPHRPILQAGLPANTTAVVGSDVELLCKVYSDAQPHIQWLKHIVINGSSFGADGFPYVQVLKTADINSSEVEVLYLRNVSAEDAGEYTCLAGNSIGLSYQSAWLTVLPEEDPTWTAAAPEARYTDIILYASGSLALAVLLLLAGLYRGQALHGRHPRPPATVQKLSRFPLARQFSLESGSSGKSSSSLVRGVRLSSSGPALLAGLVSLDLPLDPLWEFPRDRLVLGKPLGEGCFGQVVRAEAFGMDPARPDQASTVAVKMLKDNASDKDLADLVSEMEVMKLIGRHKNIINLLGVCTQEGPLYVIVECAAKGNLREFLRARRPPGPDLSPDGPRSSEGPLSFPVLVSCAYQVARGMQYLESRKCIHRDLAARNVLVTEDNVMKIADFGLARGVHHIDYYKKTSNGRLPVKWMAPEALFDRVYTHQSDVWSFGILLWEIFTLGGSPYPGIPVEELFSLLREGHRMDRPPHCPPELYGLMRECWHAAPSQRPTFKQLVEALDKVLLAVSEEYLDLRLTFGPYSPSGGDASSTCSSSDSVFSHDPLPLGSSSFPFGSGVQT
T4 sequence (P22607 23-806 V555M): as the sequence (P22607 23-806) above, with V533M counted along it
T3 sequence (P21802 22-821): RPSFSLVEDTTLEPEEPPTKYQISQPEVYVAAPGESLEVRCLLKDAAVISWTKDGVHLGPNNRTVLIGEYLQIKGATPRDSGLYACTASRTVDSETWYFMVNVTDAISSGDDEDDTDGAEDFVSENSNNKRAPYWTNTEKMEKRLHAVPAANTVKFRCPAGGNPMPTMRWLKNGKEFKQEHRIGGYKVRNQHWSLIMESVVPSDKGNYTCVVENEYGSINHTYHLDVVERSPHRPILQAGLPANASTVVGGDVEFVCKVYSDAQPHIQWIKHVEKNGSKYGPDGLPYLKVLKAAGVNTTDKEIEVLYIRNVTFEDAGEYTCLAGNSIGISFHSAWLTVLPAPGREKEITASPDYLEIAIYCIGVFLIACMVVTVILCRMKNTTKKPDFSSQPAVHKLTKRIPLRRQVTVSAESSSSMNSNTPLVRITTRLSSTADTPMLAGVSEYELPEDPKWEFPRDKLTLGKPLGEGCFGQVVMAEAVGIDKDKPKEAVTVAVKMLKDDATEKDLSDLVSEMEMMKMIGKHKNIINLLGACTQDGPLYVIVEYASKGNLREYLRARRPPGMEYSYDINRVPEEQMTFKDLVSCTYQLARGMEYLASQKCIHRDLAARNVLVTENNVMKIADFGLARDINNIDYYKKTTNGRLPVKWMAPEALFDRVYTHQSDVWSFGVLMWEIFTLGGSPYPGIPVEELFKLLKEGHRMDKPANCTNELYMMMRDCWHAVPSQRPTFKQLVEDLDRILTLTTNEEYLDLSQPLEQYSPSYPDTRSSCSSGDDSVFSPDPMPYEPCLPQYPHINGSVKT

## Cc1ncc(Cl)c([C@@H](C)Oc2ccc3[nH]nc(-c4cnc(N5CC(C)(N)C5)c(C#N)c4)c3c2)c1Cl [Example 39, 2-(3-amino-3-methyl-azetidin-1-yl)-5-[5-[(1R)-1-(3,5-dichloro-2-methyl-4-pyridyl)ethoxy]-1H-indazol-3-yl]pyridine-3-carbonitrile]
[1]
  IC50: 50 to 200 nM
FGFR3
  Kd: 1 to 50 nM
FGFR1
  Kd: 50 to 300 nM
FGFR2
  Kd: 50 to 300 nM
FGFR3 (V555M)
  Kd: 1 to 50 nM
FGFR4
  Kd: 1 to 50 nM

## C[C@@H](Oc1ccc2[nH]nc(-c3cnc(N4CC(C)(N(C)C)C4)c(C#N)c3)c2c1)c1c(Cl)cncc1Cl [Example 29, (R)-5-(5-(1-(3,5-dichloropyridin-4-yl)ethoxy)-1H-indazol-3-yl)-2-(3-(dimethylamino)-3-methylazetidin-1-yl)nicotinonitrile]
[1]
  IC50: 50 to 200 nM
FGFR3
  Kd: 1 to 50 nM
FGFR1
  Kd: 50 to 300 nM
FGFR2
  Kd: 50 to 300 nM
FGFR3 (V555M)
  Kd: 1 to 50 nM
FGFR4
  Kd: 1 to 50 nM

## Cc1ncc(Cl)c([C@@H](C)Oc2ccc3[nH]nc(-c4cnc(N5CC(C)(OC6CCC6)C5)c(C#N)c4)c3c2)c1Cl [Example 46, (R)-2-(3-Cyclobutoxy-3-methylazetidin-1-yl)-5-(5-(1-(3,5-dichloro-2-methyl-pyridin-4-yl)ethoxy)-1H-indazol-3-yl)nicotinonitrile]
[1]
  IC50: > 1000 nM
FGFR3
  Kd: 300 to 1000 nM
FGFR1
  Kd: > 1000 nM
FGFR2
  Kd: > 1000 nM
FGFR3 (V555M)
  Kd: 50 to 300 nM
FGFR4
  Kd: 1 to 50 nM

## CCN(CC)C1(C)CN(c2ncc(-c3n[nH]c4ccc(O[C@H](C)c5c(Cl)cnc(C)c5Cl)cc34)cc2C#N)C1 [Example 36, 5-[5-[(1R)-1-(3,5-dichloro-2-methyl-4-pyridyl)ethoxy]-1H-indazol-3-yl]-2-[3-(diethylamino)-3-methyl-azetidin-1-yl]pyridine-3-carbonitrile]
[1]
  IC50: 200 to 1000 nM
FGFR3
  Kd: 1 to 50 nM
FGFR1
  Kd: 50 to 300 nM
FGFR2
  Kd: 50 to 300 nM
FGFR3 (V555M)
  Kd: 1 to 50 nM
FGFR4
  Kd: 1 to 50 nM

## COc1cc2[nH]nc(-c3cnc(N4CC(C)(N(C)C)C4)c(S(C)(=O)=O)c3)c2cc1O[C@H](C)c1c(Cl)cncc1Cl [Example 1, (R)-1-(5-(5-(1-(3,5-dichloropyridin-4-yl)ethoxy)-6-methoxy-1H-indazol-3-y1)-3-(methylsulfonyl)pyridin-2-yl)-N,N,3-trimethylazetidin-3-amine]
[1]
  IC50: 0.1 to 50 nM
FGFR3
  Kd: 1 to 50 nM
FGFR1
  Kd: 1 to 50 nM
FGFR2
  Kd: 1 to 50 nM
FGFR3 (V555M)
  Kd: 1 to 50 nM
FGFR4
  Kd: 1 to 50 nM

## COc1cc2[nH]nc(-c3cnc(N4CC(C)(N5C[C@@H]6C[C@H]5CO6)C4)c(C#N)c3)c2cc1O[C@H](C)c1c(Cl)cncc1Cl [Example 336, -(3-((1S,4S)-2-oxa-5-aza-bicyclo[2.2.1]hep-tan-5-y1)-3-methylazetidin-1-yl)-5-(5-((R)-1-(3,5-dichloropyridin-4-yl)ethoxy)-6-methoxy-1H-indazol-3-yl)nicotinonitrile]
[1]
  IC50: 0.1 to 50 nM
FGFR3
  Kd: 1 to 50 nM
FGFR1
  Kd: 1 to 50 nM
FGFR2
  Kd: 1 to 50 nM
FGFR3 (V555M)
  Kd: 1 to 50 nM
FGFR4
  Kd: 1 to 50 nM

## C[C@@H](Oc1cc2c(-c3cnc(N4CC(C)(CP(C)(C)=O)C4)c(C#N)c3)n[nH]c2cc1F)c1c(Cl)cncc1Cl [Example 11, (R)-5-(5-(1-(3,5-dichloropyridin-4-yl)ethoxy)-6-fluoro-1H-indazol-3-yl)-2-(3-((dimethylphosphoryl)methyl)-3-methylazetidin-1-yl)nicotinonitrile]
[1]
  IC50: 0.1 to 50 nM
FGFR3
  Kd: 1 to 50 nM
FGFR1
  Kd: 50 to 300 nM
FGFR2
  Kd: 1 to 50 nM
FGFR3 (V555M)
  Kd: 1 to 50 nM
FGFR4
  Kd: 1 to 50 nM

## Cc1ncc(Cl)c([C@@H](C)Oc2ccc3[nH]nc(-c4cnc(N5CC(C)(N6CCOCC6)C5)c(C#N)c4)c3c2)c1Cl [Example 38, 5-[5-[(1R)-1-(3,5-dichloro-2-methyl-4-pyridyl)ethoxy]-1H-indazol-3-yl]-2-(3-methyl-3-morpholino-azetidin-1-yl)pyridine-3-carbonitrile]
[1]
  IC50: 50 to 200 nM
FGFR3
  Kd: 1 to 50 nM
FGFR1
  Kd: 300 to 1000 nM
FGFR2
  Kd: 50 to 300 nM
FGFR3 (V555M)
  Kd: 1 to 50 nM
FGFR4
  Kd: 1 to 50 nM

## COc1cc2[nH]nc(-c3cnc(N4CC(C)(NC(C)C)C4)c(C#N)c3)c2cc1O[C@@H](C)c1c(Cl)cncc1Cl [Example 330, (S)-5-(5-(1-(3,5-dichloropyridin-4-yl)ethoxy)-6-methoxy-1H-indazol-3-yl)-2-(3-(isopropylamino)-3-methylazetidin-1-yl)nicotinonitrile]
[1]
  IC50: 200 to 1000 nM
FGFR3
  Kd: 50 to 300 nM
FGFR1
  Kd: 300 to 1000 nM
FGFR2
  Kd: 300 to 1000 nM
FGFR3 (V555M)
  Kd: 50 to 300 nM
FGFR4
  Kd: 1 to 50 nM

## CCNC1(C)CN(c2ncc(-c3n[nH]c4ccc(O[C@H](C)c5c(Cl)cncc5Cl)cc34)cc2C#N)C1 [Example 35, (R)-5-(5-(1-(3,5-dichloropyridin-4-yl)ethoxy)-1H-indazol-3-yl)-2-(3-(ethylamino)-3-methylazetidin-1-yl)nicotinonitrile]
[1]
  IC50: 0.1 to 50 nM
FGFR3
  Kd: 1 to 50 nM
FGFR1
  Kd: 1 to 50 nM
FGFR2
  Kd: 1 to 50 nM
FGFR3 (V555M)
  Kd: 1 to 50 nM
FGFR4
  Kd: 1 to 50 nM

## COc1cc2[nH]nc(-c3cnc(N4CC(C)(NC5CCC5)C4)c(C#N)c3)c2cc1O[C@H](C)c1c(Cl)cncc1Cl [Example 12, (R)-2-(3-(cyclobutylamino)-3-methylazetidin-1-yl)-5-(5-(1-(3,5-dichloropyridin-4-yl)ethoxy)-6-methoxy-1H-indazol-3-yl)nicotinonitrile]
[1]
  IC50: 0.1 to 50 nM
FGFR3
  Kd: 1 to 50 nM
FGFR1
  Kd: 1 to 50 nM
FGFR2
  Kd: 1 to 50 nM
FGFR3 (V555M)
  Kd: 1 to 50 nM
FGFR4
  Kd: 1 to 50 nM

## Cc1ncc(Cl)c([C@@H](C)Oc2ccc3[nH]nc(-c4cnc(N5CC(C)(OC(C)C)C5)c(C#N)c4)c3c2)c1Cl [Example 13, 5-[5-[(1R)-1-(3,5-dichloro-2-methyl-4-pyridyl)ethoxy]-1H-indazol-3-yl]-2-(3-isopropoxy-3-methyl-azetidin-1-yl)pyridine-3-carbonitrile]
[1]
  IC50: 200 to 1000 nM
FGFR3
  Kd: 50 to 300 nM
FGFR1
  Kd: > 1000 nM
FGFR2
  Kd: > 1000 nM
FGFR3 (V555M)
  Kd: 50 to 300 nM
FGFR4
  Kd: 1 to 50 nM

## COc1cc2[nH]nc(-c3cnc(N4CC(C)(CS(C)(=O)=O)C4)c(C#N)c3)c2cc1O[C@@H](C)c1c(Cl)cncc1Cl [Example 332, (S)-5-(5-(1-(3,5-dichloropyridin-4-yl)ethoxy)-6-methoxy-1H-indazol-3-yl)-2-(3-methyl-3-((methyl-sulfonyl)meth-yl)azetidin-1-yl)nicotinonitrile]
[1]
  IC50: 200 to 1000 nM
FGFR3
  Kd: 300 to 1000 nM
FGFR1
  Kd: > 1000 nM
FGFR2
  Kd: > 1000 nM
FGFR3 (V555M)
  Kd: 300 to 1000 nM
FGFR4
  Kd: 1 to 50 nM

## Cc1ncc(Cl)c([C@@H](C)Oc2ccc3[nH]nc(-c4cnc(N5CC(C)(NC6COC6)C5)c(C#N)c4)c3c2)c1Cl [Example 30, 5-[5-[(1R)-1-(3,5-dichloro-2-methyl-4-pyridyl)ethoxy]-1H-indazol-3-yl]-2-[3-methyl-3-(oxetan-3-ylamino)azetidin-1-yl]pyridine-3-carbonitrile]
[1]
  IC50: 0.1 to 50 nM
FGFR3
  Kd: 1 to 50 nM
FGFR1
  Kd: 1 to 50 nM
FGFR2
  Kd: 1 to 50 nM
FGFR3 (V555M)
  Kd: 1 to 50 nM
FGFR4
  Kd: 1 to 50 nM

## COc1cc2[nH]nc(-c3cnc(N4CCC(C)(N)CC4)c(C#N)c3)c2cc1O[C@H](C)c1c(Cl)cncc1Cl [Example 368, (R)-2-(4-amino-4-methylpiperidin-1-yl)-5-(5-(1-(3,5-dichloropyridin-4-yl)ethoxy)-6-methoxy-1H-indazol-3-yl)nicotinonitrile]
[1]
  IC50: 0.1 to 50 nM
FGFR3
  Kd: 1 to 50 nM
FGFR1
  Kd: 1 to 50 nM
FGFR2
  Kd: 1 to 50 nM
FGFR4
  Kd: 1 to 50 nM

## COc1cc2[nH]nc(-c3cnc(N4CC(CC#N)(NCC5CC5)C4)c(C#N)c3)c2cc1O[C@H](C)c1c(Cl)cnc(C)c1Cl [Example 350, (R)-2-(3-(Cyanomethyl)-3-((cyclopropyl-methyl)ami-no)azetidin-1-yl)-5-(5-(1-(3,5-dichloro-2-methylpyridin-4-yl)ethoxy)-6-methoxy-1H-indazol-3-yl)nicotinonitrile]
[1]
  IC50: 0.1 to 50 nM
FGFR3
  Kd: 1 to 50 nM
FGFR1
  Kd: 50 to 300 nM
FGFR2
  Kd: 1 to 50 nM
FGFR4
  Kd: 1 to 50 nM
